Assays:
[1] = target: T1, Plasminogen (Homo sapiens, UniProt P00747); assay: Inhibition of plasmin (unknown origin) using Boc-Val-Leu-Lys-MCA as substrate by fluorescence analysis
[2] = target: T1, Plasminogen; assay: Inhibition of plasmin (unknown origin) assessed as relative potency using Boc-Val-Leu-Lys-MCA as substrate by fluorescence analysis
[3] = target: Urokinase-type plasminogen activator (Homo sapiens, UniProt P00749); assay: Inhibition of urokinase (unknown origin) using Pyr-Gly-Arg-MCA as substrate by fluorescence analysis

T1 sequence (P00747 97-580 limits assumed): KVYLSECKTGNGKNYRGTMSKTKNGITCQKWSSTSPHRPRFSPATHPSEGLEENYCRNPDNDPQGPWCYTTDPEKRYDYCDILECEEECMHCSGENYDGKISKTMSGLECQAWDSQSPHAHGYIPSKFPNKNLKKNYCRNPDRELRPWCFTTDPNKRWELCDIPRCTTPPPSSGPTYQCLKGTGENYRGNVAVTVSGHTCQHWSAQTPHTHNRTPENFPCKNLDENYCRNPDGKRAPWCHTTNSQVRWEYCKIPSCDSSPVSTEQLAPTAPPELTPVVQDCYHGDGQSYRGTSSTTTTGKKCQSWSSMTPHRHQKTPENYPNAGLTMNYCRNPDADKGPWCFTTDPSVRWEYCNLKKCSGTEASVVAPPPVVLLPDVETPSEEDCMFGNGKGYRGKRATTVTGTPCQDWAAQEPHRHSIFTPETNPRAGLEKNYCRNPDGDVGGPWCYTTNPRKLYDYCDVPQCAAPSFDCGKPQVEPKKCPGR
T1 sequence (P00747 581-810 limits assumed): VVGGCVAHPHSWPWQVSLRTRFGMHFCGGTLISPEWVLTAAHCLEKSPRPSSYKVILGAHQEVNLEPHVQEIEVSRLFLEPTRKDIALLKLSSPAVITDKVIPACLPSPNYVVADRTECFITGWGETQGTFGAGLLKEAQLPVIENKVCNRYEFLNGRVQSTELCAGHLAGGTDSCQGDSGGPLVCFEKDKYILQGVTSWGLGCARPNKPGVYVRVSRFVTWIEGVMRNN

SMILES: Cn1c(CN2C(=O)CN(c3ccc(F)cc3)C2=O)cc2cnc(C(=O)N[C@H](C#N)CCCCN)nc21
- IC50 [1]: 43 µM
- fold change (FC) [2]: 3
- IC50 [3]: > 200 µM

SMILES: Cn1c(CN2C(=O)CN(c3ccc(Oc4ccccc4)cc3)C2=O)nc2cc(C(=O)N[C@H](C#N)CCCCN)ccc21
- IC50 [1]: > 200 µM

SMILES: Cn1c(CN2C(=O)CN(c3ccc4oc(=O)n(C)c4c3)C2=O)cc2cnc(C(=O)N[C@H](C#N)CCCCN)nc21
- IC50 [1]: 43 µM
- fold change (FC) [2]: 3.1

SMILES: Cn1c(CN2C(=O)CN(c3ccc(Oc4ccncc4)cc3)C2=O)cc2cnc(C(=O)N[C@H](C#N)CCCCN)nc21
- IC50 [1]: 74 µM
- IC50 [3]: > 200 µM

SMILES: Cn1c(CN2C(=O)CN(c3ccc4c(c3)oc(=O)n4C)C2=O)cc2cnc(C(=O)N[C@H](C#N)CCCCN)nc21
- IC50 [1]: 130 µM
- fold change (FC) [2]: 3.9

SMILES: CCCn1c(=O)oc2cc(N3CC(=O)N(Cc4cc5cnc(C(=O)N[C@H](C#N)CCCCN)nc5n4C)C3=O)ccc21
- IC50 [1]: 160 µM

SMILES: Cn1c(CN2C(=O)CN(c3ccc(F)cc3)C2=O)nc2ccc(C(=O)N[C@H](C#N)CCCCN)cc21
- IC50 [1]: 100 µM
- IC50 [3]: > 200 µM

SMILES: Cn1c(CN2C(=O)CN(c3ccc4oc(=O)n(Cc5ccncc5)c4c3)C2=O)cc2cnc(C(=O)N[C@H](C#N)CCCCN)nc21
- IC50 [1]: 23 µM

SMILES: CC(C)Cn1c(=O)oc2cc(N3CC(=O)N(Cc4cc5cnc(C(=O)N[C@H](C#N)CCCCN)nc5n4C)C3=O)ccc21
- IC50 [1]: > 200 µM

SMILES: Cn1c(CN2C(=O)CN(c3ccc4c(c3)oc(=O)n4Cc3ccncc3)C2=O)cc2cnc(C(=O)N[C@H](C#N)CCCCN)nc21
- IC50 [1]: > 200 µM

SMILES: CCCn1c(=O)oc2ccc(N3CC(=O)N(Cc4cc5cnc(C(=O)N[C@H](C#N)CCCCN)nc5n4C)C3=O)cc21
- IC50 [1]: 26 µM

SMILES: CC(C)Cn1c(=O)oc2ccc(N3CC(=O)N(Cc4cc5cnc(C(=O)N[C@H](C#N)CCCCN)nc5n4C)C3=O)cc21
- IC50 [1]: 29 µM

SMILES: Cn1c(CN2C(=O)CN(c3ccc(Oc4ccccc4)cc3)C2=O)cc2cnc(C(=O)N[C@H](C#N)CCCCN)nc21
- IC50 [1]: 14 µM
- fold change (FC) [2]: 1
- IC50 [3]: > 200 µM

SMILES: Cn1c(CN2C(=O)CN(c3ccc(Oc4ccccc4)cc3)C2=O)nc2ccc(C(=O)N[C@H](C#N)CCCCN)cc21
- IC50 [1]: 25 µM

SMILES: N#C[C@H](CCCCN)NC(=O)c1nc2cc(CN3C(=O)CN(c4ccc(F)cc4)C3=O)ccc2o1
- IC50 [1]: > 200 µM
- fold change (FC) [2]: > 14.3

SMILES: Cn1c(CN2C(=O)CN(c3ccc(Oc4ccncc4)cc3)C2=O)nc2ccc(C(=O)N[C@H](C#N)CCCCN)cc21
- IC50 [1]: 56 µM
- IC50 [3]: > 200 µM
